Assay results published in ChEMBL document CHEMBL1817546, “The synthesized novel fluorinated compound (LJJ-10) induces death receptor- and mitochondria-dependent apoptotic cell death in the human osteogenic sarcoma U-2 OS cells” (Eur J Med Chem, 2011).
Calls of active or inactive are those of the source.

Assays:
[1] = Induction of death receptor signaling-mediated apoptosis in human U2OS cells assessed as increase in FADD level at 30 uM after 12 to 48 hrs by Western blotting method; assay type: cell-based
U2OS [2] = experiment: Induction of apoptosis in human U2OS cells after 48 hrs by MTT assay in presence of cyclosporine A; assay type: functional, cell-based
[3] = Induction of death receptor signaling-mediated apoptosis in human U2OS cells assessed decrease in as cell viability at 30 uM after 48 hrs by MTT assay in presence of caspase-9 inhibitor Z-LEHD-FMK; assay type: cell-based
U2OS [4] = experiment: Cytotoxicity against human U2OS cells after 48 hrs by MTT assay; assay type: functional, cell-based
U2OS [5] = experiment: Induction of apoptosis in human U2OS cells after 48 hrs by MTT assay in presence of anti-FasL monoclonal antibody; assay type: functional, cell-based
[6] = Induction of death receptor signaling-mediated apoptosis in human U2OS cells assessed as increase caspase-9 activity measuring release of pNA at 30 uM after 48 hrs by spectrophotometry; assay type: cell-based
[7] = Induction of death receptor signaling-mediated apoptosis in human U2OS cells assessed as decrease in Bid level at 30 uM after 12 to 48 hrs by Western blotting; assay type: cell-based
[8] = Induction of death receptor signaling-mediated apoptosis in human U2OS cells assessed as increase caspase-3 activity measuring release of pNA at 30 uM after 48 hrs by spectrophotometry; assay type: cell-based
[9] = Induction of death receptor signaling-mediated apoptosis in human U2OS cells assessed as increase in FasL expression at 30 uM after 12 hrs using FasL-FITC mAb by flow cytometry (Rvb= 1.23+/-0.11 %); assay type: cell-based
U2OS [10] = experiment: Induction of apoptosis in human U2OS cells assessed as cell shrinking at 30 uM after 48 hrs by phase-contrast microscopic analysis; assay type: functional, cell-based
[11] = Induction of death receptor signaling-mediated apoptosis in human U2OS cells assessed as increase in Fas level at 30 uM after 12 to 48 hrs by Western blotting method; assay type: cell-based
U2OS [12] = experiment: Induction of DNA damage in human U2OS cells by comet assay; assay type: functional, cell-based
COLO 205 = experiment: Cytotoxicity against human COLO205 cells after 48 hrs by MTT assay; assay type: functional, cell-based; details: COLO 205, 48 h
HL-60 = experiment: Cytotoxicity against human HL60 cells after 48 hrs by MTT assay; assay type: functional, cell-based; details: HL-60, 48 h
[13] = Induction of death receptor signaling-mediated apoptosis in human U2OS cells assessed as increase in Fas expression at 30 uM after 12 hrs using FasL-FITC mAb by flow cytometry (Rvb= 2.01+/-0.74 %); assay type: cell-based
[14] = Induction of death receptor signaling-mediated apoptosis in human U2OS cells assessed as increase in AIF level at 30 uM after 12 to 48 hrs by Western blotting; assay type: cell-based
[15] = Induction of death receptor signaling-mediated apoptosis in human U2OS cells assessed as decrease in pro-caspase3 level at 30 uM after 12 to 48 hrs by Western blotting method; assay type: cell-based
[16] = Induction of death receptor signaling-mediated apoptosis in human U2OS cells assessed as increase in production of reactive oxygen species at 30 uM after 2 to 12 hrs by flow cytometry relative to control; assay type: cell-based; details: TDE = time-dependent effect
[17] = Induction of death receptor signaling-mediated apoptosis in human U2OS cells assessed as decrease in mitochondrial membrane potential at 30 uM after 2 to 12 hrs relative to control; assay type: cell-based; details: TDE = time-dependent effect
U-937 = experiment: Cytotoxicity against human U937 cells after 48 hrs by MTT assay; assay type: functional, cell-based; details: U-937, 48 h
[18] = Induction of death receptor signaling-mediated apoptosis in human U2OS cells assessed as increase in Apaf-1 level at 30 uM after 12 to 48 hrs by Western blotting; assay type: cell-based
U2OS [19] = experiment: Induction of apoptosis in human U2OS cells after 48 hrs by MTT assay in presence of ROS scavenger NAC; assay type: functional, cell-based
[20] = Induction of death receptor signaling-mediated apoptosis in human U2OS cells assessed as increase in caspase-9 level at 30 uM after 12 to 48 hrs by Western blotting; assay type: cell-based
[21] = Induction of death receptor signaling-mediated apoptosis in human U2OS cells assessed as decrease in Bcl-2 level at 30 uM after 12 to 48 hrs by Western blotting; assay type: cell-based
[22] = Induction of death receptor signaling-mediated apoptosis in human U2OS cells assessed as decrease in cell viability at 30 uM after 48 hrs by MTT assay in presence of caspase-8 inhibitor Z-IETD-FMK; assay type: cell-based
[23] = Cytotoxicity against human FOB cells assessed as reduction in cell number after 48 hrs by MTT assay relative to control; assay type: cell-based
[24] = Induction of death receptor signaling-mediated apoptosis in human U2OS cells assessed as increase in FasL level at 30 uM after 12 to 48 hrs by Western blotting method; assay type: cell-based
[25] = Induction of death receptor signaling-mediated apoptosis in human U2OS cells assessed as increase in cytochrome c level at 30 uM after 12 to 48 hrs by Western blotting; assay type: cell-based
U2OS [26] = experiment: Induction of apoptosis in human U2OS cells assessed as cell rounding at 30 uM after 48 hrs by phase-contrast microscopic analysis; assay type: functional, cell-based
U2OS [27] = experiment: Cytotoxicity against human U2OS cells assessed as growth inhibition after 48 hrs by MTT assay relative to control; assay type: functional, cell-based
[28] = Cytotoxicity against human HT29-AK cells after 48 hrs by MTT assay; assay type: functional, cell-based
[29] = Induction of death receptor signaling-mediated apoptosis in human U2OS cells assessed as decrease in cell viability at 30 uM after 48 hrs by MTT assay in presence of caspase-3 inhibitor […]; assay type: cell-based
MCF7 = experiment: Cytotoxicity against human MCF7 cells after 48 hrs by MTT assay; assay type: functional, cell-based; details: MCF7, 48 h
MDA-MB-231 = experiment: Cytotoxicity against human MDA-MB-231 cells after 48 hrs by MTT assay; assay type: functional, cell-based; details: MDA-MB-231, 48 h
[30] = Induction of death receptor signaling-mediated apoptosis in human U2OS cells assessed as increase caspase-8 activity measuring release of pNA at 30 uM after 48 hrs by spectrophotometry; assay type: cell-based
[31] = Induction of death receptor signaling-mediated apoptosis in human U2OS cells assessed as increase in Bax level at 30 uM after 12 to 48 hrs by Western blotting; assay type: cell-based
[32] = Induction of death receptor signaling-mediated apoptosis in human U2OS cells assessed as increase in Endo-G level at 30 uM after 12 to 48 hrs by Western blotting; assay type: cell-based
[33] = Induction of death receptor signaling-mediated apoptosis in human U2OS cells assessed as increase in caspase-8 level at 30 uM after 12 to 48 hrs by Western blotting method; assay type: cell-based

COc1cccc(Nc2nc(-c3cccc(F)c3)nc3ccc(F)cc23)c1
47.1 µM: IC50 (MDA-MB-231)
40.4 µM: IC50 [28]
76.2%: Activity [9] | Activity [13]
inactive: Activity (U2OS [2]) | Activity [3] | Activity (U2OS [5]) | Activity (U2OS [19]) | Activity [22] | Activity [29]
30.3 µM: IC50 (U2OS [4])
active: Activity [1] | Activity [6] | Activity [7] | Activity [8] | Activity (U2OS [10]) | Activity [11] | Activity (U2OS [12]) Dose-dependent effect | Activity [14] | Activity [15] | Activity [16] tde | Activity [17] tde | Activity [18] | Activity [20] | Activity [21] | Activity [24] | Activity [25] | Activity (U2OS [26]) | growth inhibition (GI) (U2OS [27]) Dose-dependent effect | Activity [30] | Activity [31] | Activity [32] | Activity [33]
46.3 µM: IC50 (MCF7)
Non-toxic: Activity [23]
39.6 µM: IC50 (U-937)
35.5 µM: IC50 (HL-60)
44.7 µM: IC50 (COLO 205)

Oc1ccc(Nc2nc(-c3cccc(F)c3)nc3ccc(F)cc23)cc1
> 50 µM: IC50 (U2OS [4]) | IC50 (COLO 205) | IC50 (HL-60) | IC50 (U-937) | IC50 [28] | IC50 (MCF7) | IC50 (MDA-MB-231)

Cc1cccc(Nc2nc(-c3cccc(F)c3)nc3ccc(F)cc23)c1
> 50 µM: IC50 (U2OS [4]) | IC50 (COLO 205) | IC50 (HL-60) | IC50 (U-937) | IC50 [28] | IC50 (MCF7) | IC50 (MDA-MB-231)

Fc1cccc(-c2nc(Nc3ccccc3Br)c3cc(F)ccc3n2)c1
> 50 µM: IC50 (U2OS [4]) | IC50 (COLO 205) | IC50 (HL-60) | IC50 (U-937) | IC50 [28] | IC50 (MCF7) | IC50 (MDA-MB-231)

Fc1ccc2nc(-c3ccccc3)nc(Nc3ccccc3)c2c1
> 50 µM: IC50 (U2OS [4]) | IC50 (COLO 205) | IC50 (HL-60) | IC50 (U-937) | IC50 [28] | IC50 (MCF7) | IC50 (MDA-MB-231)

Fc1cccc(-c2nc(Nc3ccccc3F)c3cc(F)ccc3n2)c1
> 50 µM: IC50 (U2OS [4]) | IC50 (COLO 205) | IC50 (HL-60) | IC50 (U-937) | IC50 [28] | IC50 (MCF7) | IC50 (MDA-MB-231)

Fc1cccc(-c2nc(Nc3ccc(Cl)cc3)c3cc(F)ccc3n2)c1
38.4 µM: IC50 (U2OS [4])
> 50 µM: IC50 (MCF7) | IC50 (MDA-MB-231)
40.3 µM: IC50 [28]
45.7 µM: IC50 (HL-60)
32.6 µM: IC50 (COLO 205) | IC50 (U-937)

Fc1cccc(Nc2nc(-c3cccc(F)c3)nc3ccc(F)cc23)c1
> 50 µM: IC50 (COLO 205) | IC50 [28]
47.6 µM: IC50 (MDA-MB-231)
43.1 µM: IC50 (HL-60)
42.3 µM: IC50 (U-937)
49.6 µM: IC50 (U2OS [4])
48.7 µM: IC50 (MCF7)
